# Test results published in publication PMC8989888, “Development of optimized drug-like small molecule inhibitors of the SARS-CoV-2 3CL protease for treatment of COVID-19” (Nature Communications, 2022).
# Values joined by “and” are separate entries in the source; they are usually repeats but may differ in a detail not shown here. Identical values can stand only once. Like-named read-outs stand apart in the source and are kept apart here.
# Tests used:
# SARS-CoV-2 [1] = experiment: microbe, parasite or virus in culture; format: cell-based
# SARS-CoV-2 3CL protease [2] = molecular target: T1, SARS-CoV-2 3CL protease (Severe acute respiratory syndrome coronavirus 2, UniProt P0DTD1); experiment: biochemical; settings: for % SARS-CoV-2 3CL activity: 200 nM protease, replicates
# SARS-CoV-2 3CL protease [3] = molecular target: T1, SARS-CoV-2 3CL protease; experiment: biochemical; settings: for kinact/KI: read-out: SARS-CoV-2 3CLpro kinact/KI
# SARS-CoV-2 3CL protease [4] = molecular target: T1, SARS-CoV-2 3CL protease; format: binding
# SARS-CoV-2 [5] = experiment: cell-based
# SARS-CoV-2 [6] = experiment: microbe, parasite or virus in culture; format: cell-based; remark: listed apart in the source
# SARS-CoV-2 3CL protease [7] = molecular target: T1, SARS-CoV-2 3CL protease; format: binding; remark: listed apart in the source
# human chymotrypsin = experiment: Chymotrypsin activity assay (Panc-1 cell lysate); format: biochemical
# [8] = Severe acute respiratory syndrome coronavirus 2, Vero C1008, read-out: SARS-CoV-2 Vero E6 EC50
# [9] = 20 nM protease, read-out: SARS-CoV-2 3CLpro IC50
# [10] = Concentration of inhibitor (nM) 0.19382
# [11] = Concentration of inhibitor (nM) 0.49485
# [12] = Concentration of inhibitor (nM) 0.79588
# [13] = Concentration of inhibitor (nM) 1.09691
# [14] = Concentration of inhibitor (nM) 1.39794
# [15] = Concentration of inhibitor (nM) 1.69897
# [16] = Concentration of inhibitor (nM) 2
# [17] = Concentration of inhibitor (nM) 2.30103
# [18] = Concentration of inhibitor (nM) 2.60206
# [19] = Concentration of inhibitor (nM) -0.10721
# [20] = Concentration of inhibitor (nM) -0.40824
smiles,measurement,setting,value
O=C(N[C@@H](CC1CCCCC1)C(=O)N[C@@H](C[C@@H]1CCNC1=O)C(O)S(=O)(=O)O)OCc1cccc(Cl)c1 (stereo partly shown) [EB48],EC50,SARS-CoV-2 [1]; [8],16000 nM
same,IC50,SARS-CoV-2 3CL protease [2]; [9],200 nM
same,"normalized activity, dose-response curve (Figure S16)",SARS-CoV-2 3CL protease [2]; [10],110.351 and 97.4198
same,"normalized activity, dose-response curve (Figure S16)",SARS-CoV-2 3CL protease [2]; [11],103.827 and 92.511
same,"normalized activity, dose-response curve (Figure S16)",SARS-CoV-2 3CL protease [2]; [12],102.384 and 88.7351
same,"normalized activity, dose-response curve (Figure S16)",SARS-CoV-2 3CL protease [2]; [13],98.7453 and 87.9169
same,"normalized activity, dose-response curve (Figure S16)",SARS-CoV-2 3CL protease [2]; [14],87.2647 and 81.1831
same,"normalized activity, dose-response curve (Figure S16)",SARS-CoV-2 3CL protease [2]; [15],80.9285 and 77.1554
same,"normalized activity, dose-response curve (Figure S16)",SARS-CoV-2 3CL protease [2]; [16],69.8871 and 61.2964
same,"normalized activity, dose-response curve (Figure S16)",SARS-CoV-2 3CL protease [2]; [17],58.4065 and 46.4443
same,"normalized activity, dose-response curve (Figure S16)",SARS-CoV-2 3CL protease [2]; [18],43.601 and 36.7527
same,"normalized activity, dose-response curve (Figure S16)",SARS-CoV-2 3CL protease [2]; [19],108.281 and 111.58
same,"normalized activity, dose-response curve (Figure S16)",SARS-CoV-2 3CL protease [2]; [20],100
same,"observed inactivation rate vs compound concentration (Figure S19, replicate values)",SARS-CoV-2 3CL protease [3],0.0858 and 0.04 and 0.095 and 0.0226 and 0.0022 and 0.0296 and 0.1194 and 0.0166 and 0.0446 and 0.0488 and 0.0144 and 0.0572 and 0.0269 and -0.02233 and 0.0225 and 0.0208 and 0.0151 and 0.0309
same,kinact/KI,SARS-CoV-2 3CL protease [3],35000 M⁻¹ s⁻¹
same,binding to 3CL protease by mass spectrometry (in words),SARS-CoV-2 3CL protease [4],blocked the covalent binding of 10 equivalents of compound 4
CC(C)C[C@H](NC(=O)OCc1ccc2ccccc2c1)C(=O)N[C@@H](C[C@@H]1CCNC1=O)C(O)S(=O)(=O)O (stereo partly shown) [EB56],EC50,SARS-CoV-2 [1]; [8],4000 nM
same,EC50,SARS-CoV-2 [5],800 nM
same,IC50,SARS-CoV-2 3CL protease [2]; [9],50 nM
same,"normalized activity, dose-response curve (Figure S16)",SARS-CoV-2 3CL protease [2]; [10],89.823 and 93.9936
same,"normalized activity, dose-response curve (Figure S16)",SARS-CoV-2 3CL protease [2]; [11],85.2362 and 82.2757
same,"normalized activity, dose-response curve (Figure S16)",SARS-CoV-2 3CL protease [2]; [12],85.487 and 88.0978
same,"normalized activity, dose-response curve (Figure S16)",SARS-CoV-2 3CL protease [2]; [13],72.8375 and 72.1422
same,"normalized activity, dose-response curve (Figure S16)",SARS-CoV-2 3CL protease [2]; [14],69.3615 and 64.0723
same,"normalized activity, dose-response curve (Figure S16)",SARS-CoV-2 3CL protease [2]; [15],53.5944 and 48.1904
same,"normalized activity, dose-response curve (Figure S16)",SARS-CoV-2 3CL protease [2]; [16],29.9078 and 31.2768
same,"normalized activity, dose-response curve (Figure S16)",SARS-CoV-2 3CL protease [2]; [18],3.964 and 3.456
same,"normalized activity, dose-response curve (Figure S16)",SARS-CoV-2 3CL protease [2]; [19],94.804 and 91.5247
same,"normalized activity, dose-response curve (Figure S16)",SARS-CoV-2 3CL protease [2]; [20],100
same,"observed inactivation rate vs compound concentration (Figure S19, replicate values)",SARS-CoV-2 3CL protease [3],0.0572 and 0.0815 and 0.095 and 0.0426 and 0.0949 and 0.1078 and 0.0732 and 0.0307 and 0.0058 and 0.0365 and 0.0284 and 0.0434 and 0.0176 and 0.0243 and -0.00666 and 0.0205 and 0.0022 and 0.0219 and 0.0071 and 0.0016 and -0.00538
same,kinact/KI,SARS-CoV-2 3CL protease [3],18300 M⁻¹ s⁻¹
same,binding to 3CL protease by mass spectrometry (in words),SARS-CoV-2 3CL protease [4],blocked the covalent binding of 10 equivalents of compound 4
same,"inhibition of SARS-CoV-2 (Figure s17b dose-response, replicate values)",SARS-CoV-2 [6],102.227 and 102.618 and 99.1767 and 91.8872 and 92.3176 and 92.3719 and 59.4672 and 57.4366 and 41.3693 and 36.9002 and 26.4205 and 14.778 and 9.09 and 16.3686 and 1.374 and -4.092 and 13.2513 and -12.3171 and 9.345 and 11.9707 and 3.907
same,EC50,"SARS-CoV-2 [6]; Severe acute respiratory syndrome coronavirus 2, 24 h, read-out: SARS-CoV-2 Huh-7ACE2 EC50",28 nM
"O=C(Oc1cncc(Cl)c1)c1cccs1 [MAC-5576, reference compound]",% SARS-CoV-2 inhibition,SARS-CoV-2 [1],-2%
same,"EC50, inhibition of SARS-CoV-2 viral replication",SARS-CoV-2 [1],did not
same,IC50,SARS-CoV-2 3CL protease [2]; IC50,93 nM
same,IC50,SARS-CoV-2 3CL protease [2]; SARS-CoV-2 3CLpro IC50,10 nM
same,binding stoichiometry,SARS-CoV-2 3CL protease [7],1.2 ± 0.2
same,binding to 3CL protease by mass spectrometry (in words),SARS-CoV-2 3CL protease [4],one-to-one complex
same,Normalized chymotrypsin activity,human chymotrypsin,1.078 and 0.9826 and 0.9946
O=C(N[C@@H](CC1CCCCC1)C(=O)N[C@@H](C[C@@H]1CCNC1=O)C(O)S(=O)(=O)O)OCc1ccccc1 (stereo partly shown) [SL-4-241],EC50,SARS-CoV-2 [1]; [8],17000 nM
same,IC50,SARS-CoV-2 3CL protease [2]; [9],75 nM
same,"normalized activity, dose-response curve (Figure S16)",SARS-CoV-2 3CL protease [2]; [10],94.2892 and 94.3168
same,"normalized activity, dose-response curve (Figure S16)",SARS-CoV-2 3CL protease [2]; [11],87.5254 and 99.9152
same,"normalized activity, dose-response curve (Figure S16)",SARS-CoV-2 3CL protease [2]; [12],89.3075 and 94.6561
same,"normalized activity, dose-response curve (Figure S16)",SARS-CoV-2 3CL protease [2]; [13],90.077 and 87.1492
same,"normalized activity, dose-response curve (Figure S16)",SARS-CoV-2 3CL protease [2]; [14],78.3315 and 75.5284
same,"normalized activity, dose-response curve (Figure S16)",SARS-CoV-2 3CL protease [2]; [15],69.502 and 62.8473
same,"normalized activity, dose-response curve (Figure S16)",SARS-CoV-2 3CL protease [2]; [16],41.1102 and 41.9808
same,"normalized activity, dose-response curve (Figure S16)",SARS-CoV-2 3CL protease [2]; [17],10.8147 and 10.0871
same,"normalized activity, dose-response curve (Figure S16)",SARS-CoV-2 3CL protease [2]; [18],3.241 and 2.3258
same,"normalized activity, dose-response curve (Figure S16)",SARS-CoV-2 3CL protease [2]; [19],98.5824 and 101.484
same,"normalized activity, dose-response curve (Figure S16)",SARS-CoV-2 3CL protease [2]; [20],100
same,"observed inactivation rate vs compound concentration (Figure S19, replicate values)",SARS-CoV-2 3CL protease [3],0.0986 and 0.0638 and 0.0852 and 0.1375 and 0.0874 and 0.0292 and 0.1342 and 0.0676 and 0.0349 and 0.0089 and 0.0058 and 0.057 and 0.065 and 0.0135 and 0.036 and 0.0158 and 0.0274 and 0.003 and 0.0091 and 0.01 and -0.00355
same,kinact/KI,SARS-CoV-2 3CL protease [3],23300 M⁻¹ s⁻¹
same,binding to 3CL protease by mass spectrometry (in words),SARS-CoV-2 3CL protease [4],blocked the covalent binding of 10 equivalents of compound 4
"O=c1c2ccccc2[se]n1-c1ccccc1 [ebselen, reference compound]",EC50,"SARS-CoV-2 [1]; Severe acute respiratory syndrome coronavirus 2, Vero C1008, 72 h, read-out: EC50, inhibition of SARS-CoV-2 viral replication",800 nM
same,% SARS-CoV-2 3CL activity,SARS-CoV-2 3CL protease [2]; log10[nM] 0.404879,89.3778% and 107.442% and 103.181%
same,% SARS-CoV-2 3CL activity,SARS-CoV-2 3CL protease [2]; log10[nM] 0.882,94.9547% and 93.3775% and 98.4402%
same,% SARS-CoV-2 3CL activity,SARS-CoV-2 3CL protease [2]; log10[nM] 1.35912,94.2663% and 88.5936% and 99.7037%
same,% SARS-CoV-2 3CL activity,SARS-CoV-2 3CL protease [2]; log10[nM] 1.83624,88.0185% and 85.2126% and 81.8055%
same,% SARS-CoV-2 3CL activity,SARS-CoV-2 3CL protease [2]; log10[nM] 2.31336,61.5633% and 42.9069% and 50.6187%
same,% SARS-CoV-2 3CL activity,SARS-CoV-2 3CL protease [2]; log10[nM] 2.79048,10.2823% and 8.339% and 9.272%
same,% SARS-CoV-2 3CL activity,SARS-CoV-2 3CL protease [2]; log10[nM] 3.26761,7.59% and 9.629% and 7.886%
same,% SARS-CoV-2 3CL activity,SARS-CoV-2 3CL protease [2]; log10[nM] 3.74473,6.213% and 7.476% and 5.15%
same,% SARS-CoV-2 3CL activity,SARS-CoV-2 3CL protease [2]; log10[nM] 4.22185,3.895% and 5.307% and 2.98%
same,% SARS-CoV-2 3CL activity,SARS-CoV-2 3CL protease [2]; log10[nM] 4.69897,-2.597% and 1.403% and 1.1938%
same,% SARS-CoV-2 3CL activity,SARS-CoV-2 3CL protease [2]; log10[nM] -0.0722425,107.261% and 104.787% and 112.511%
same,% SARS-CoV-2 3CL activity,SARS-CoV-2 3CL protease [2]; log10[nM] -0.549364,92.7537% and 98.0597% and 109.187%
same,binding stoichiometry,SARS-CoV-2 3CL protease [7]; ITC,didn’t reach saturation until a high molar ratio
same,binding to 3CL protease by mass spectrometry (in words),SARS-CoV-2 3CL protease [4],binding of multiple ebselen molecules to each 3CL protease molecule
same,Normalized chymotrypsin activity,"human chymotrypsin; 10µM compound, 100 µg Panc-1 cell lysate, replicates",0.8849 and 0.7812 and 0.7681
